In patent publication US9296741B2, “Bromodomain inhibitors” (priority 2012, dated 2016):

Key:
[1] = biological target: human BRD4 first bromodomain (BDI_K57-E168) (Homo sapiens (Human), UniProt O60885); assay: TR-FRET bromodomain binding assay, BRD4 first bromodomain
[2] = biological target: human BRD4 second bromodomain (BDII_E352-M457) (Homo sapiens (Human), UniProt O60885); assay: TR-FRET bromodomain binding assay, BRD4 second bromodomain
[3] = test system: breast cancer cell line MX-1; assay: MX-1 cell line proliferation assay; format: cell-based, human; settings: Homo sapiens, MX1, 72 h; MX-1 cells, 3-day proliferation, Cell Titer Glo; read-out: Cellular proliferation: EC50
[4] = Human liver microsome stability assay; format: in vitro ADME; settings: both sexes, human, microsomes, pH 7.4
[5] = Rat liver microsome stability assay; format: in vitro ADME; settings: rat liver microsomes (male Sprague-Dawley), 0.5 μM test compound, 0.25 mg/mL microsomal protein, pH 7.4, 37° C.; read-out: Stability in rat liver microsomes (t1/2 in minutes)
[6] = Mouse liver microsome stability assay; format: in vitro ADME; settings: male, CD1, mouse, microsomes, pH 7.4

Row | Structure (SMILES) | Ki [1] [nM] | Ki [2] [nM] | EC50 [3] [nM] | half-life at 0.5 μM [4] [min] | half-life at 0.5 μM [5] [min] | half-life at 0.5 μM [6] [min]
1 | CCS(=O)(=O)Nc1ccc(OC2CCC(F)(F)CC2)c(-c2cn(C)c(=O)c3[nH]ccc23)c1 [Example 101, N-{4-[(4,4-difluorocyclohexyl)oxy]-3-(6-methyl-7-oxo-6,7-dihydro-1H-pyrrolo[2,3-c]pyridin-4-yl)phenyl}ethanesulfonamide] | 1.2 | 4.3 | 11.2 | 92 | 12 | 20
2 | CNS(=O)(=O)Nc1ccc(OC2CCC(F)(F)CC2)c(-c2cn(C)c(=O)c3[nH]ccc23)c1 [Example 104, N-{4-[(4,4-difluorocyclohexyl)oxy]-3-(6-methyl-7-oxo-6,7-dihydro-1H-pyrrolo[2,3-c]pyridin-4-yl)phenyl}-N′-methylsulfuric diamide] | 4.4 | 17.9 | 65.3 | 27 | 8 | 7
3 | CCS(=O)(=O)Nc1ccc(OC2CCCOC2)c(-c2cn(C)c(=O)c3[nH]ccc23)c1 (stereo not drawn) [Example 105, N-[3-(6-methyl-7-oxo-6,7-dihydro-1H-pyrrolo[2,3-c]pyridin-4-yl)-4-(tetrahydro-2H-pyran-3-yloxy)phenyl]ethanesulfonamide] | 0.52 | 1.5 | 16 | > 120 | 13 | 7
4 | CNS(=O)(=O)Nc1ccc(OC2CCCOC2)c(-c2cn(C)c(=O)c3[nH]ccc23)c1 (stereo not drawn) [Example 108, N-methyl-N′-[3-(6-methyl-7-oxo-6,7-dihydro-1H-pyrrolo[2,3-c]pyridin-4-yl)-4-(tetrahydro-2H-pyran-3-yloxy)phenyl]sulfuric diamide] | 1.4 | 5.3 | 38 | 37 | 33 | 13
5 | CCS(=O)(=O)Nc1ccc(OC2CCOCC2)c(-c2cn(C)c(=O)c3[nH]ccc23)c1 [Example 109, N-[3-(6-methyl-7-oxo-6,7-dihydro-1H-pyrrolo[2,3-c]pyridin-4-yl)-4-(tetrahydro-2H-pyran-4-yloxy)phenyl]ethanesulfonamide] | 0.72 | 3.4 | 32 | 71 | 61 | > 120
6 | Cn1cc(-c2cc(S(N)(=O)=O)cnc2Nc2ccccc2)c2cc[nH]c2c1=O [Example 111, 5-(6-methyl-7-oxo-6,7-dihydro-1H-pyrrolo[2,3-c]pyridin-4-yl)-6-(phenylamino)pyridine-3-sulfonamide] | 8.7 | 10.3 | 199 | > 120 | 42 | 63
7 | Cn1cc(-c2cc(NS(=O)(=O)CCF)ccc2Oc2c(F)cc(F)cc2F)c2cc[nH]c2c1=O [Example 114, 2-fluoro-N-[3-(6-methyl-7-oxo-6,7-dihydro-1H-pyrrolo[2,3-c]pyridin-4-yl)-4-(2,4,6-trifluorophenoxy)phenyl]ethanesulfonamide] | 136 | 121 | > 3000 | 13 | 5 | 8
8 | CCCS(=O)(=O)Nc1ccc(Oc2ccc(F)cc2F)c(-c2cn(C)c(=O)c3[nH]ccc23)c1 [Example 115, N-[4-(2,4-difluorophenoxy)-3-(6-methyl-7-oxo-6,7-dihydro-1H-pyrrolo[2,3-c]pyridin-4-yl)phenyl]propane-1-sulfonamide] | 67.1 | 26.9 | 55 | 41 | 38 | 55
9 | Cn1cc(-c2cc(C(=O)NCc3ccncc3)ccc2Oc2ccc(F)cc2F)c2cc[nH]c2c1=O [Example 121, 4-(2,4-difluorophenoxy)-3-(6-methyl-7-oxo-6,7-dihydro-1H-pyrrolo[2,3-c]pyridin-4-yl)-N-(pyridin-4-ylmethyl)benzamide] | 15.5 | 33.4 | 251 | 21 | 25 | 24
10 | Cn1cc(-c2cc(C(=O)NCC(C)(C)O)ccc2Oc2ccc(F)cc2F)c2cc[nH]c2c1=O [Example 123, 4-(2,4-difluorophenoxy)-N-(2-hydroxy-2-methylpropyl)-3-(6-methyl-7-oxo-6,7-dihydro-1H-pyrrolo[2,3-c]pyridin-4-yl)benzamide] | 27.1 | 36.1 | 118 | > 120 | > 120 | 45
11 | Cn1cc(-c2cc(C(=O)NCc3ccccn3)ccc2Oc2ccc(F)cc2F)c2cc[nH]c2c1=O [Example 129, 4-(2,4-difluorophenoxy)-3-(6-methyl-7-oxo-6,7-dihydro-1H-pyrrolo[2,3-c]pyridin-4-yl)-N-(pyridin-2-ylmethyl)benzamide] | 37.9 | 45.6 | 118 | 54 | 38 | 12
12 | Cn1cc(-c2cc(C(=O)N3CCN(C(=O)c4ccco4)CC3)ccc2Oc2ccc(F)cc2F)c2cc[nH]c2c1=O [Example 134, 4-[2-(2,4-difluorophenoxy)-5-{[4-(furan-2-ylcarbonyl)piperazin-1-yl]carbonyl}phenyl]-6-methyl-1,6-dihydro-7H-pyrrolo[2,3-c]pyridin-7-one] | 43.5 | 7.3 | 137 | 15 | 21 | 2
13 | CCS(=O)(=O)N1CCN(C(=O)c2ccc(Oc3ccc(F)cc3F)c(-c3cn(C)c(=O)c4[nH]ccc34)c2)CC1 [Example 137, 4-[2-(2,4-difluorophenoxy)-5-{[4-(ethylsulfonyl)piperazin-1-yl]carbonyl}phenyl]-6-methyl-1,6-dihydro-7H-pyrrolo[2,3-c]pyridin-7-one] | 68.7 | 8.9 | 303 | 38 | 31 | 10
14 | CCS(=O)(=O)Nc1ccc(Oc2cncnc2)c(-c2cn(C)c(=O)c3[nH]ccc23)c1 [Example 141, N-[3-(6-methyl-7-oxo-6,7-dihydro-1H-pyrrolo[2,3-c]pyridin-4-yl)-4-(pyrimidin-5-yloxy)phenyl]ethanesulfonamide] | 5.4 | 15.2 | 125 | > 120 | 110 | 49
15 | CCS(=O)(=O)Nc1ccc(OCc2ccnn2C)c(-c2cn(C)c(=O)c3[nH]ccc23)c1 [Example 142, N-{3-(6-methyl-7-oxo-6,7-dihydro-1H-pyrrolo[2,3-c]pyridin-4-yl)-4-[(1-methyl-1H-pyrazol-5-yl)methoxy]phenyl}ethanesulfonamide] | 6.5 | 79.4 | 138 | 112 | 35 | 32
16 | CCS(=O)(=O)Nc1ccc(OCC2CC2)c(-c2cn(C)c(=O)c3[nH]ccc23)c1 [Example 145, N-[4-(cyclopropylmethoxy)-3-(6-methyl-7-oxo-6,7-dihydro-1H-pyrrolo[2,3-c]pyridin-4-yl)phenyl]ethanesulfonamide] | 2.7 | 5.6 | 26.4 | > 120 | 12 | 16
17 | Cn1nc(-c2cc(N)ccc2Oc2ccc(F)cc2F)c2cc[nH]c2c1=O [Example 148, 4-[5-amino-2-(2,4-difluorophenoxy)phenyl]-6-methyl-1,6-dihydro-7H-pyrrolo[2,3-d]pyridazin-7-one] | 205 | 152 | 740 | 58 | 2 | 6
18 | Cn1cc(-c2cc(S(C)(=O)=O)ccc2Oc2ccccc2Cl)c2cc[nH]c2c1=O [Example 152, 4-[2-(2-chlorophenoxy)-5-(methylsulfonyl)phenyl]-6-methyl-1,6-dihydro-7H-pyrrolo[2,3-c]pyridin-7-one] | 24.6 | 4.8 | 105 | 51 | 10 | 22
19 | Cn1cc(-c2cc(S(C)(=O)=O)ccc2Oc2cccc(Cl)c2)c2cc[nH]c2c1=O [Example 153, 4-[2-(3-chlorophenoxy)-5-(methylsulfonyl)phenyl]-6-methyl-1,6-dihydro-7H-pyrrolo[2,3-c]pyridin-7-one] | 22.8 | 8.2 | 93.3 | 33 | 8 | 11
20 | Cn1cc(-c2cc(S(C)(=O)=O)ccc2Oc2cccc(C#N)c2)c2cc[nH]c2c1=O [Example 155, 3-[2-(6-methyl-7-oxo-6,7-dihydro-1H-pyrrolo[2,3-c]pyridin-4-yl)-4-(methylsulfonyl)phenoxy]benzonitrile] | 19.3 | 14.8 | 117 | > 120 | > 120 | 25
21 | Cn1cc(-c2cc(S(C)(=O)=O)ccc2Oc2ccc(C#N)cc2)c2cc[nH]c2c1=O [Example 156, 4-[2-(6-methyl-7-oxo-6,7-dihydro-1H-pyrrolo[2,3-c]pyridin-4-yl)-4-(methylsulfonyl)phenoxy]benzonitrile] | 11.3 | 20.9 | 114 | > 120 | > 120 | 33
